Experimental data published in patent publication US20250129091A1, “THIENOPYRROLOTRIAZINE COMPOUNDS, THEIR PREPARATION AND THEIR THERAPEUTIC USE” (Sanofi, priority 2022, published 2025).
pIC50: −log10 of the molar value. Where a name gives a salt, the structure may show the parent alone.

What follows are molecules tested on NLRP3 inflammasome (assay: IL-1β secretion assay (LPS-primed, nigericin-activated THP-1 cells, MSD readout)). Conditions: Homo sapiens, LPS-primed, read-out: IL1b IC50.
Type: cell-based
Protocol: Monocytic THP-1 cells (DSMZ) were maintained in RPMI media (RPMI 1640 Medium (1×) +10% FBS, Eurobio CVFSVFOO—OU). Cells were then plated at 16,000 cells per well in 96-well round bottom cell culture plates (TPP, ref 92097) and maintained with RPMI and 0.1% Bovine Serum Albumin solution. Activation of the NLRP3 inflammasome requires both an NF-kB-dependent priming step and the addition of a NLRP3 activator. The priming step was induced by LPS (10 ng/mL, Sigma, ref:L4391) for 3 h at 37° C., then compound, in a 1:3.10 serial dilution series in DMSO 1:100, and the activator nigericin (Sigma Aldrich, ref: SML1779) 10 μM (final concentration) were added to the cells and co-incubated for 2 h. 50 μL supernatant was removed, and IL-1β levels were monitored using an MSD assay (Electro Chemical Luminescence Immunoassay (ECLI) according to manufacturers' instructions.
IC50 values were calculated from the plot of percentage of inhibition versus the inhibitor concentration by a logistics fit according to: y=A2+(A1−A2)/(1+(x/IC50)^p) where y is the %-inhibition at the inhibitor concentration, x. A1 is the lowest inhibition value, i.e., 0%, and A2 the maximum inhibition value, i.e., 100%. The exponent, p, is the Hill coefficient. The curve fitting was conducted with an internally developed software.
`CC(C)c1nn(CC(=O)NC2CN3CCC2CC3)c(=O)c2cc3ccsc3n12` (stereo not drawn) [Example 39, 2-(8-isopropyl-5-oxothieno[3′,2′:4,5]pyrrolo[1,2-d][1,2,4]triazin-6(5H)-yl)-N-(quinuclidin-3-yl)acetamide] showed a pIC50 of 5.65.

Same assay, conditions: Homo sapiens, THP-1, LPS-primed, read-out: IL1b IC50
Work on `CC(C)c1nn(CC(=O)Nc2ccn(C)n2)c(=O)c2cc3ccsc3n12` [Example 54, 2-(12-isopropyl-9-oxo-3-thia-1,10,11-triazatricyclo[6.4.0.02,6]dodeca-2(6),4,7,11-tetraen-10-yl)-N-(1-methylpyrazol-3-yl)acetamide] yielded a pIC50 of 5.77.
In the case of `CC(C)c1nn(CC(=O)Nc2ccnn2C)c(=O)c2cc3ccsc3n12` [Example 53, 2-(12-isopropyl-9-oxo-3-thia-1,10,11-triazatricyclo[6.4.0.02,6]dodeca-2(6),4,7,11-tetraen-10-yl)-N-(2-methylpyrazol-3-yl)acetamide], the pIC50 was 5.97.
For `CC(=O)NCC12CC(NC(=O)Cn3nc(C(C)C)n4c(cc5ccsc54)c3=O)(C1)C2` [Example 74, N-[3-(acetamidomethyl)bicyclo[1.1.1]pentan-1-yl]-2-(8-isopropyl-5-oxothieno[3′,2′:4,5]pyrrolo[1,2-d][1,2,4]triazin-6(5H)-yl)acetamide], the pIC50 was 6.46.
Molecule `COCc1nn(CC(=O)N[C@@H]2CCCN(C3CC3)C2)c(=O)c2cc3cc(Cl)sc3n12` [Example 30, (R)-2-(2-chloro-8-(methoxymethyl)-5-oxothieno[3′,2′:4,5]pyrrolo[1,2-d][1,2,4]triazin-6(5H)-yl)-N-(1-cyclopropylpiperidin-3-yl)acetamide formate] has a pIC50 of 5.92.
Work on `CC(C)c1nn(CC(=O)Nc2ccc3ncsc3c2)c(=O)c2cc3ccsc3n12` [Example 12, N-(benzo[d]thiazol-6-yl)-2-(8-isopropyl-5-oxothieno[3′,2′:4,5]pyrrolo[1,2-d][1,2,4]triazin-6(5H)-yl)acetamide] yielded a pIC50 of 6.27.
With `CC(C)c1nn(CC(=O)Nc2ccncc2)c(=O)c2cc3ccsc3n12` [Example 67, 2-(12-isopropyl-9-oxo-3-thia-1,10,11-triazatricyclo[6.4.0.02,6]dodeca-2(6),4,7,11-tetraen-10-yl)-N-(4-pyridyl)acetamide] the pIC50 was 6.35.
`CC(C)c1nn(CC(=O)NC2CCC(=O)N(C)C2)c(=O)c2cc3ccsc3n12` (stereo not drawn) [Example 47, 2-(8-isopropyl-5-oxothieno[3′,2′:4,5]pyrrolo[1,2-d][1,2,4]triazin-6(5H)-yl)-N-(1-methyl-6-oxopiperidin-3-yl)acetamide] gave a pIC50 of 5.99.
With `CC(C)c1nn(CC(=O)NC2CCN(C)C(=O)C2)c(=O)c2cc3ccsc3n12` (stereo not drawn) [Example 46, 2-(8-isopropyl-5-oxothieno[3′,2′:4,5]pyrrolo[1,2-d][1,2,4]triazin-6(5H)-yl)-N-(1-methyl-2-oxopiperidin-4-yl)acetamide] the pIC50 was 5.09.
In the case of `CC(C)c1nn(CC(=O)NC2CCCN(C3CCC3(C)C)C2)c(=O)c2cc3ccsc3n12` (racemic) [Example 57, 2-(12-isopropyl-9-oxo-3-thia-1,10,11-triazatricyclo[6.4.0.02,6]dodeca-2(6),4,7,11-tetraen-10-yl)-N-[rac-(3R)-1-(2,2-dimethylcyclobutyl)-3-piperidyl]acetamide], the pIC50 was 6.00.
`CC(C)c1nn(CC(=O)Nc2cccnc2)c(=O)c2cc3ccsc3n12` [Example 56, 2-(12-isopropyl-9-oxo-3-thia-1,10,11-triazatricyclo[6.4.0.02,6]dodeca-2(6),4,7,11-tetraen-10-yl)-N-(3-pyridyl)acetamide] was tested, and the pIC50 was 5.83.
With `COc1ccc(NC(=O)Cn2nc(C(C)C)n3c(cc4ccsc43)c2=O)cn1` [Example 16, 2-(8-isopropyl-5-oxothieno[3′,2′:4,5]pyrrolo[1,2-d][1,2,4]triazin-6(5H)-yl)-N-(6-methoxypyridin-3-yl)acetamide] the pIC50 was 5.82.
For `CC(C)c1nn(CC(=O)N[C@@H]2CCCN(C3COC3)C2)c(=O)c2cc3ccsc3n12` [Example 40, (R)-2-(8-isopropyl-5-oxothieno[3′,2′:4,5]pyrrolo[1,2-d][1,2,4]triazin-6(5H)-yl)-N-(1-(oxetan-3-yl)piperidin-3-yl)acetamide], the pIC50 was 6.59.
In the case of `CC(C)c1nn(CC(=O)N[C@@H]2CCCN(C[C@@H](C)O)C2)c(=O)c2cc3ccsc3n12` [Example 78, N-[(3R)-1-[(2R)-2-hydroxypropyl]piperidin-3-yl]-2-(8-isopropyl-5-oxothieno[3′,2′:4,5]pyrrolo [1,2-d][1,2,4]triazin-6(5H)-yl)acetamide], the pIC50 was 6.49.
With `CC(C)c1nn(CC(=O)NC2CCCN(CC(F)(F)F)C2)c(=O)c2cc3ccsc3n12` (stereo not drawn) [Example 38, 2-(8-isopropyl-5-oxothieno[3′,2′:4,5]pyrrolo[1,2-d][1,2,4]triazin-6(5H)-yl)-N-(1-(2,2,2-trifluoroethyl)piperidin-3-yl)acetamide 2,2,2-trifluoroacetate] the pIC50 was 5.89.
Molecule `CC(C)c1nn(CC(=O)N[C@@H]2CCCN(C(C)C)C2)c(=O)c2cc3ccsc3n12` [Example 48, 2-(12-isopropyl-9-oxo-3-thia-1,10,11-triazatricyclo[6.4.0.02,6]dodeca-2(6),4,7,11-tetraen-10-yl)-N-[(3R)-1-isopropyl-3-piperidyl]acetamide] has a pIC50 of 7.23.
With `CCCc1nn(CC(=O)N[C@@H]2CCCN(C3CC3)C2)c(=O)c2cc3ccsc3n12` [Example 72, N-[(3R)-1-cyclopropylpiperidin-3-yl]-2-(9-oxo-12-propyl-3-thia-1,10,11-triazatricyclo [6.4.0.02,6]dodeca-2(6),4,7,11-tetraen-10-yl)acetamide] the pIC50 was < 5.00.
For `CC(C)c1nn(CC(=O)N[C@@H]2CCCCN(C)C2)c(=O)c2cc3ccsc3n12` [Example 62, 2-(12-isopropyl-9-oxo-3-thia-1,10,11-triazatricyclo[6.4.0.02,6]dodeca-2(6),4,7,11-tetraen-10-yl)-N-[(3R)-1-methylazepan-3-yl]acetamide], the pIC50 was 6.07.
`CC(C)c1nn(CC(=O)N[C@@H]2CCN(C)C2)c(=O)c2cc3ccsc3n12` [Example 76, N-[(3R)-1-methylpyrrolidin-3-yl]-2-(8-isopropyl-5-oxothieno[3′,2′:4,5]pyrrolo[1,2-d][1,2,4]triazin-6(5H)-yl)acetamide] was tested, and the pIC50 was 6.01.
In the case of `CC(C)c1nn(CC(=O)NC2CCN(C3CC3)C2)c(=O)c2cc3ccsc3n12` (stereo not drawn) [Example 86, N-(1-cyclopropylpyrrolidin-3-yl)-2-(12-isopropyl-9-oxo-3-thia-1,10,11-triazatricyclo [6.4.0.02,6]dodeca-2(6),4,7,11-tetraen-10-yl)acetamide], the pIC50 was < 5.00.
`COCc1nn(CC(=O)N[C@@H]2CCCN(C3CCC3)C2)c(=O)c2cc3ccsc3n12` [Example 32, (R)—N-(1-cyclobutylpiperidin-3-yl)-2-(8-(methoxymethyl)-5-oxothieno [3′,2′:4,5]pyrrolo[1,2-d][1,2,4]triazin-6(5H)-yl)acetamide] was tested, and the pIC50 was 5.51.
Molecule `CC(=O)N1CCC[C@@H](NC(=O)Cn2nc(C(C)C)n3c(cc4ccsc43)c2=O)C1` [Example 42, (R)—N-(1-acetylpiperidin-3-yl)-2-(8-isopropyl-5-oxothieno[3′,2′:4,5]pyrrolo[1,2-d][1,2,4]triazin-6(5H)-yl)acetamide] has a pIC50 of 5.94.

Same assay, conditions: LPS-primed, read-out: IL1b IC50
Molecule `CC(O)c1nn(CC(=O)N[C@@H]2CCCN(C3CCC3)C2)c(=O)c2cc3ccsc3n12` (single isomer, unassigned) [Example 50] has a pIC50 of 6.19.
`CC(O)c1nn(CC(=O)N[C@@H]2CCCN(C3CCC3)C2)c(=O)c2cc3ccsc3n12` (single isomer, unassigned) [Example 81] was tested, and the pIC50 was < 5.00.
